≈ marks a conversion by molar mass, not a printed value.
How the values were obtained:
[1] = test system: CD-1 mice; assay: In vivo toxicity test, single injection
Procedure: The LD₅₀ for the compound was > 150 mg/kg.

[2] = test system: HIV-1 p24 core antigen; assay: p24 ELISA on supernatant of the cytotoxic assay wells; format: cell-based
Procedure: Secondary assays for evaluating antiviral activity included the syncytial-forming assay and p24 ELISA's. The first assay was described above. The p24 assay was performed by purchasing the p24 kit for the human immunodeficiency virus for p24 antigen assays from the Coulter Corporation, Hialeah, FL. […] The preparation of a mouse monoclonal antibody with high specificity and affinity for the viral p24 protein has allowed the development of an extremely sensitive ELISA for HIV-1 p24 core antigen.
An assay for antiviral activity to HIV-1 was started on 10-28-93 using the cytotoxic assay as described above and HIV-1 activity was observed microscopically in this sample on day 4 of the cytotoxic assay. On day six, 10 µl of supernatant fluid were removed from the cytotoxic wells and assayed for p24. The results of the cytotoxic assay, p24 assay, and syncytia assay were: […]

[3] = test system: HIV-1; assay: HIV-1 antiviral in vitro assays; format: cell-based
[4] = test system: HIV-1 RF; assay: Syncytium-forming assay (Syncytia assay), antiviral activity; format: cell-based
Source text: To determine the HIV-1 viral titers the quantitative infectivity syncytium-forming assay described by P.L. Nara and P.J. Fischinger, "Quantitative Infectivity Assay for HIV-1 and -2," Nature, 332: 469 (1988)) was used. In this assay a single infectious unit of virus infects a single cell and initiates a focal cell change such as syncytium formation. Because a single infectious unit causes a single response, a linear relationship exists between the number of cytopathic effects caused by viral infection and the first order of virus concentration. This quantitative assay can be used to determine the titers of the HIV-1 in viral stocks, neutralization tests, and antiviral assays.
The quantitative infectivity syncytium-forming assay is applied for the direct quantitation of fusigenic virus-infected cells. CEM-SS cells were used for the syncytium-forming assay. CEM-SS cell are human T4-lymphoblastoid cells of a cell line initially derived by G.E. Foley, et al., "Continuous Culture to Human Lymphoblasts from Peripheral Blood of a Child with Acute Leukemia," Cancer, 18: 522 (1965) and biologically cloned by Nara et al., supra. The cells for this assay were provided by Dr. Nara.
CEM-SS cells were maintained in a growth medium of RPMI 1640, 10% fetal bovine serum, 1% L-glutamine (200 mM) and 50 µg/ml of gentamicin. CEM-SS cells grow in suspension. The cells have been cloned for both poly-L-lysine-induced adherence to microtiter plates and virus-induced syncytial and fusogenic sensitivity following infection with either cell-free or cell-associated HIV-1 and HIV-2. It has been determined that the cells are negative for virus including human retroviruses as determined by electron microscopy and reverse transcriptase analysis.
A.4.1. Use 96-wells flat bottom tissue culture plates and score the bottoms of all wells into 4 quadrants. A.4.2. Add 50 µl/well of diluted poly-L-lysine. Prepare stock poly-L-lysine (Poly-L-lysine hydrobromide, Sigma catalog, cat. # P-1399) at 5 mg/ml and store at -20°C for future use. For the assay dilute the stock poly-L-lysine 1:100 using phosphate buffered saline (PBS). A.4.3. Incubate plates at room temperature for no less than 30 minutes. A.4.4. Remove poly-L-lysine from wells. A.4.5. Wash the plates with 100 µl/well of Dulbecco's PBS and remove the excess PBS. A.4.6. Dilute CEM-SS cells in a logarithmic state of growth to 0.5 x 10⁶ cells per ml in a serum free medium and add 1 µg/ml polybrene. Incubate the cell suspension at 37°C for 60 minutes. Centrifuge at 800 rpm for 10 minutes and decant the supernatant fluid. A.4.7. Dilute the treated CEM-SS cell suspension to 5.0 x 10⁵ cells. Add 100 µl to the test wells so that the final cell concentration is 50,000 cells per well. Make ten-fold dilutions of the viral stock. Add 50 µl to the test wells. Add 50 µl growth medium to bring the total test volume to 200 µl. On day 3 place a clear plastic film (plate sealers, Dynatech Laboratories, Inc., cat # 001-010-3501) over the microtiter wells and evaluate for syncytium forming units (SFU).
The assay described above for determining viral titers of HIV-1 stock virus can be modified and used to evaluate the antiviral activity of compounds. A.5.1. Plates are treated with poly-L-lysine the same as above, and CEM-SS cells are polybrene treated. A.5.2. Dilute test compound in medium to desired concentrations. A.5.3. Add 100 µl CEM-SS cells to each well so that the final cell concentration is 50,000 cells per well. A.5.4. Add 50 µl of the test compound at each respective concentration to at least two wells, or four for one replicate assay. A.5.5. Add 50 µl growth medium to drug control wells. A.5.6. Add 50 µl HIV-1 virus to test wells at a concentration that provides approximately 100 SFU of virus per well. A.5.7. Run appropriate cell and viral controls. A.5.8. Incubate plates for 3 to 5 days. A.5.9. On day 3 to 5 cover plates with clear plastic sealers and count syncytial-forming units in the test wells and viral control wells.

[5] = test system: CEM-SS cells; assay: XTT cytoprotection assay (Cytotoxic Assay), toxicity wells without virus; format: cell-based, human; settings: Table VI, assay date
Procedure: This assay is a measure of the viability of human T cell lines after infection with HIV in the presence of potential antiviral compounds. The results are assessed spectrophometrically by reading optical densities after the addition of XTT to determine if the viable cells reduced the pale yellow tetrazolium reagent (XTT) to an orange formazan product. This assay can be utilized for the initial screen of large numbers of samples. For the cytoprotection assay CEM-SS cells and HIV-1 RF strain of virus were used. Test samples were first diluted in an appropriate solvent, and 10 to 50 μl were transferred to the test plate. If the solvent was methanol or a similar solvent, the plates were allowed to evaporate. If medium was used for dilutions the plates were covered and the volume of test sample was taken into consideration when adding cells and virus. At each test concentration 50 μl of sample were added to three wells, one for toxicity tests, one for color control, and one for antiviral activity. Assuming the solvent was evaporated, 150 μl cells are added to all wells, except the control wells for medium only, so that the cell concentration per well was 5000. Then 50 μl of HIV-1 virus was added to each test well so that the M.O.I. was approximately 0.31. For toxicity tests 50 μl of medium were added to the control well. The plates were incubated in 5% CO2 for 6 days at 37°C. After incubation, the XTT solution was added to the plates, and after 4 hours incubation at 37°C the plates are covered with clear plastic sealers. Cell viability was measured by the visible light absorbance at 450 nm and a reference wavelength of 650 nm. Data were expressed as a percentage of formazan produced in drug test wells compared to formazan produced in wells of untreated control cells. CEM-SS cells were maintained with growth medium RPMI 1640, 10% fetal bovine serum, 2% L-glutamine (200 mM), and 50 μg/ml gentamicin in a 5% CO2 water-saturated atmosphere. Cells were maintained in the logarithmic growth state by subdividing cultures when the cell concentrations reach an upper limit of 1 x 10^6 cells per ml. […] Polybrene medium was removed by centrifugation, and CEM-SS cells were resuspended in growth medium. If solvents were evaporated the cell concentration was 33,500 cells per ml so that 150 μl contained 5000 cells. If medium was the dilution vehicle then the cell concentration was 50,000 so that 100 μl contained 5000 cells. The total test volume for medium, cells, and virus was 200 μl. Dissolve XTT in medium, add PMS/PBS. Warm to 37°C for approximately 10 to 15 minutes to obtain an homogeneous solution. Add 50 μl per plate Incubate for 4 hours. Read A(450-650) nm. B.2.5. Data processing After the plates were read spectrophotometrically the data was transferred via modem from the laboratory to the office. The data was processed to convert optical density readings to a percentage of inhibition compared to CEM-SS cells that have not been infected with HIV-1 virus. C = cells D = Drug or Sample M = Medium V = Virus M = medium only in well V = medium + CEM-SS cells + virus in well (M + C) = medium + CEM-SS cells (M + D) = medium + drug in well (M + D + C) = medium + drug + CEM-SS cell in well (M+D+C+V) = medium + drug + CEM-SS cells + virus in well.

[6] = test system: CEM-SS cells; assay: Syncytium-forming assay (Syncytia assay), toxicity in drug control wells; format: cell-based; settings: Homo sapiens
Procedure: The assay described above for determining viral titers of HIV-1 stock virus can be modified and used to evaluate the antiviral activity of compounds. A.5.1. Plates are treated with poly-L-lysine the same as above, and CEM-SS cells are polybrene treated. A.5.2. Dilute test compound in medium to desired concentrations. A.5.3. Add 100 µl CEM-SS cells to each well so that the final cell concentration is 50,000 cells per well. A.5.4. Add 50 µl of the test compound at each respective concentration to at least two wells, or four for one replicate assay. A.5.5. Add 50 µl growth medium to drug control wells. A.5.6. Add 50 µl HIV-1 virus to test wells at a concentration that provides approximately 100 SFU of virus per well. A.5.7. Run appropriate cell and viral controls. A.5.8. Incubate plates for 3 to 5 days. A.5.9. On day 3 to 5 cover plates with clear plastic sealers and count syncytial-forming units in the test wells and viral control wells. To determine if the test compounds have antiviral activity, compare the total number of SFU in the viral control to those enumerated in the test wells.

[7] = test system: HIV-1 RF; assay: XTT cytoprotection assay (called Cytotoxic Assay in the tables), antiviral activity; format: cell-based
Procedure: Changes were made to accommodate changes in solvent systems and drug test dilutions.
For the cytoprotection assay CEM-SS cells and HIV-1 RF strain of virus were used. Test samples were first diluted in an appropriate solvent, and 10 to 50 µl were transferred to the test plate. If the solvent was methanol or a similar solvent, the plates were allowed to evaporate. If medium was used for dilutions the plates were covered and the volume of test sample was taken into consideration when adding cells and virus. At each test concentration 50 µl of sample were added to three wells, one for toxicity tests, one for color control, and one for antiviral activity. Assuming the solvent was evaporated, 150 µl cells are added to all wells, except the control wells for medium only, so that the cell concentration per well was 5000. Then 50 µl of HIV-1 virus was added to each test well so that the M.O.I. was approximately 0.31. For toxicity tests 50 µl of medium were added to the control well. The plates were incubated in 5% CO₂ for 6 days at 37°C. After incubation, the XTT solution was added to the plates, and after 4 hours incubation at 37°C the plates are covered with clear plastic sealers. Cell viability was measured by the visible light absorbance at 450 nm and a reference wavelength of 650 nm. Data were expressed as a percentage of formazan produced in drug test wells compared to formazan produced in wells of untreated control cells.
Cells were maintained in the logarithmic growth state by subdividing cultures when the cell concentrations reach an upper limit of 1 x 10⁶ cells per ml.
For antiviral assays CEM-SS cells at a cell concentration of 5.0 x 10⁵ in serum free medium were treated with polybrene at a concentration of 1 µg/ml and incubated for 30 to 60 minutes at 37°C. Polybrene medium was removed by centrifugation, and CEM-SS cells were resuspended in growth medium. If solvents were evaporated the cell concentration was 33,500 cells per ml so that 150 µl contained 5000 cells. If medium was the dilution vehicle then the cell concentration was 50,000 so that 100 µl contained 5000 cells. The total test volume for medium, cells, and virus was 200 µl.
Store frozen at -20°C (0.1 to 0.2 ml per vial). Warm to 37°C as needed. […] PMS dilution for XTT medium: Dilute PMS stock from freezer 1:100 in PBS. Add 4% to medium. […] Formula for XTT/PMS solution for 1 plate (5 ml per plate)
Dissolve XTT in medium, add PMS/PBS. Warm to 37°C for approximately 10 to 15 minutes to obtain an homogeneous solution. Add 50 µl per plate Incubate for 4 hours. Read A(450-650) nm. […] The data was processed to convert optical density readings to a percentage of inhibition compared to CEM-SS cells that have not been infected with HIV-1 virus. C = cells D = Drug or Sample M = Medium V = Virus
% toxicity = 100 - [(((M + D + C) - M) ÷ ((M + C) - M)) * 100] [formula] % antiviral = ((M + D + C + V)-V-M)) ÷ ((M + D + C)-(V-M))) * 100 [formula]

[8] = Human immunodeficiency virus 1, Table VI, Syncytia Assay, 06-29-94, read-out: EC50 (converted)
[9] = Table VI, Syncytia Assay, 06-29-94
[10] = Homo sapiens, CEM-SS, read-out: IC50 (converted)
[11] = Human immunodeficiency virus 1, Table VI, Cytotoxic Assay, assay date, read-out: EC50 (converted)
[12] = Table III, Syncytia Assay (M.O.I. = .005)

Question: What does the source list for `CC1(C)CCC[C@@]2(C)[C@H](c3ccoc3)C(=O)[C@H]3O[C@@]312` (racemic) [PM-92131 (±)]?
Answer: LD₅₀ [1]: > 150 mg/kg; EC50 ([2]; Human immunodeficiency virus 1, Table I, P24 ELISA): 0.5 µg/mL (≈ 1.92 µM); EC50 ([2]; Human immunodeficiency virus 1, Table III, p24 ELISA Assay): 0.35 µg/mL (≈ 1.34 µM)

Question: What does the source list for `CC1(C)CCC[C@]2(C)[C@H](c3ccsc3)C(=O)[C@H]3O[C@@]312` (racemic) [PM-94116 & PM-94117 (1:1)]?
Answer: HIV-1 antiviral activity (in words) [3]: exhibit anti-HIV-1 activity; EC50 [4, 8]: 1 µg/mL; SI [4, 9]: 11; IC50 [5, 10]: 4.35 µg/mL (≈ 15.7 µM); IC50 [6, 9]: 11 µg/mL (≈ 39.8 µM); EC50 [7, 11]: 2.15 µg/mL; SI ([7]; Table VI, Cytotoxic Assay): 2

Question: For `CC1(C)CCC[C@@]2(C)[C@H](c3ccccc3)C(=O)[C@H]3O[C@@]312` (racemic) [PM-94118(±)], which EC50 [4, 8] is on record?
Answer: Its EC50 is 2 µg/mL.

Question: And the SI [4, 9]?
Answer: Its SI is 10.

Question: What about the IC50 [5, 10] of the same compound?
Answer: The IC50 was 9 µg/mL (≈ 33.3 µM).

Question: And the IC50 [5]?
Answer: The IC50 was 1.87 μg/200 μl.

Question: And the IC50 [6, 9]?
Answer: The IC50 was 20 µg/mL (≈ 74 µM).

Question: And the EC50 [7, 11]?
Answer: The EC50 was 3 µg/mL.

Question: For `CC1(C)CCC[C@@]2(C)[C@H](c3ccsc3)C(=O)[C@H]3O[C@@]312` (racemic) [SU-0096(±)], which IC50 [5, 10] is on record?
Answer: The IC50 was 4.5 µg/mL (≈ 16.3 µM).

Question: For `Cc1cn([C@H]2C[C@H](N=[N+]=[N-])[C@@H](CO)O2)c(=O)[nH]c1=O` [AZT, 3'-azido-3'-deoxythymidine, reference compound], which EC50 ([4]; Human immunodeficiency virus 1, Table IV, Syncytia Assay, MOI 0.002, read-out: EC₅₀) is on record?
Answer: Its EC50 is 10 nM.

Question: And the EC50 ([4]; Human immunodeficiency virus 1, Table IV, Syncytia Assay, MOI 0.004, read-out: EC₅₀)?
Answer: The EC50 was 10 nM.

Question: And the EC50 ([4]; Human immunodeficiency virus 1, Table IV, Syncytia Assay, MOI 0.008, read-out: EC₅₀)?
Answer: Its EC50 is 10 nM.

Question: And the EC50 ([4]; Human immunodeficiency virus 1, Table IV, Syncytia Assay, MOI 0.016, read-out: EC₅₀)?
Answer: Its EC50 is 70 nM.

Question: And the EC50 ([7]; Human immunodeficiency virus 1, Table V, Cytoprotection Assay, MOI 0.037, read-out: EC₅₀)?
Answer: Its EC50 is 100 nM.

Question: And the EC50 ([7]; Human immunodeficiency virus 1, Table V, Cytoprotection Assay, MOI 0.074, read-out: EC₅₀)?
Answer: Its EC50 is 460 nM.

Question: And the EC50 ([7]; Human immunodeficiency virus 1, Table V, Cytoprotection Assay, MOI 0.149, read-out: EC₅₀)?
Answer: The EC50 was 1300 nM.

Question: How did the “HIV-1 antiviral activity (in words)” value [3] turn out when `CC1(C)CCC[C@]2(C)[C@@H](c3ccoc3)C(=O)[C@@H]3O[C@]312` [PM-92131 (-)] was run?
Answer: The value was “active against HIV-1”.

Question: And the EC50 ([4]; Human immunodeficiency virus 1, Table III, Syncytia Assay (M.O.I. = .005), read-out: EC50 (converted))?
Answer: The EC50 was 4 µg/mL.

Question: And the SI [4, 12]?
Answer: The SI was 10.

Question: What about the IC50 [6, 12] of the same compound?
Answer: Its IC50 is 40 µg/mL (≈ 154 µM).

Question: What does the source list for `CC1(C)CCC[C@@]2(C)[C@@H](c3ccsc3)C(=O)[C@@H]3O[C@]312` [PM-94117]?
Answer: EC50 [4, 8]: 1.2 µg/mL; SI [4, 9]: 13; IC50 [5, 10]: 12.5 µg/mL (≈ 45.2 µM); IC50 [6, 9]: 15 µg/mL (≈ 54.3 µM)

From EP0695746A2, “Antiviral compounds and pharmaceutical compositions” (PHARMA MAR, S.A., priority 1994, dated 1996)
